Legend:
[1] = mRNA encapsulation by Qubit RNA HS dye fluorescence before and after Triton X-100 lysis; assay type: physicochemical; conditions: Fluc mRNA/peptoid formulation, 5:1 mass ratio peptoid:cargo
Protocol: (§1) In standard formulations, the tertiary amino lipidated and/or PEGylated cationic peptide compound is dissolved in anhydrous ethanol at a concentration of 0.5 mg/mL (for in vitro experiments) or 5 mg/mL (for in vivo experiments). The resulting solutions are stable at room temperature, but should be stored at −20° C. The nucleic acid cargo is dissolved in DNAse or RNAse-free water at a final concentration of 0.2 mg/mL (for in vitro experiments) or 1 mg/mL (for in vivo experiments). These solutions should be stored at −20° C. or at −78° C. for longer time periods. To prepare nanoparticle formulations, the tertiary amino lipidated and/or PEGylated cationic peptide compound is mixed by pipetting with nucleic acid at a mass ratio between approximately 1:1 (peptide compound:cargo) and 20:1. Prior to formulation, tertiary amino lipidated and/or PEGylated cationic peptide compounds and cargo (such as nucleic acid) are diluted in ethanol and acidic buffer (PBS adjusted to pH 5.5 with 0.1 M HCl) respectively to a volume ratio of 1:3 and to target a final cargo concentration of approximately 0.05 mg/mL to 0.2 mg/mL. The exemplary amino lipidated cationic peptoids 1-36 described in Example 2 were combined with firefly luciferase (Flue) mRNA to form nanoparticle compositions to be evaluated for therapeutic and/or prophylactic purposes in vitro or in vivo. The formulations were prepared according to the protocol of Example 3 and mixed by simple pipetting. The mRNA/peptoid formulation at a 5:1 mass ratio of peptoid:cargo were evaluated by dynamic light scattering (DLS) in order to determine the volume average particle size/diameter (nm) of the mRNA/peptoid complex and the size polydispersity index (PDI) within the formulation. The percentage of mRNA encapsulation for each formulation of the exemplary compounds were determined by fluorescence of the Qubit RNA HS (Invitrogen) dye before and after lysis of particles by Triton X-100.

[2] = Dynamic light scattering (DLS) of Fluc mRNA/peptoid formulations: particle size and polydispersity; assay type: physicochemical; conditions: 5:1 mass ratio peptoid:cargo; for Size (volume average particle size/diameter): Fluc mRNA/peptoid complex; for Size PDI (size polydispersity index): Fluc mRNA/peptoid formulation
Protocol: as §1

% Encapsulation (percentage of mRNA encapsulation) [1] [%]	Size (volume average particle size/diameter) [2] [nm]	Size PDI (size polydispersity index) [2]	SMILES
50.9	438.7	0.606	CCCCCCCCCCN(CC(N)=O)C(=O)CN(CCCCCCCCCC)C(=O)CN(CCc1ccccc1)C(=O)CN(CCc1ccccc1)C(=O)CN(CCNC)C(=O)CN(CCc1ccccc1)C(=O)CN(CCc1ccccc1)C(=O)CN(CCNC)C(=O)CN(CCc1ccccc1)C(=O)CN(CCc1ccccc1)C(=O)CNCCNC [Compound 27]
52.0	308	0.085	CCCCCCCCCCN(CC(N)=O)C(=O)CN(CCCCCCCCCC)C(=O)CN(CCCCCCCCCC)C(=O)CN(CCCCCCCCCC)C(=O)CN(CCc1ccccc1)C(=O)CN(CCc1ccccc1)C(=O)CN(CCCN)C(=O)CN(CCc1ccccc1)C(=O)CN(CCc1ccccc1)C(=O)CN(CCCN)C(=O)CN(CCc1ccccc1)C(=O)CN(CCc1ccccc1)C(=O)CNCCCN [Compound 28]
8.4	282.8	0.455	CCCCCCCCCCN(CC(N)=O)C(=O)CN(CCCCCCCCCC)C(=O)CN(CCc1ccccc1)C(=O)CN(CCc1ccccc1)C(=O)CN(CCCN)C(=O)CN(CCc1ccccc1)C(=O)CN(CCc1ccccc1)C(=O)CN(CCCN)C(=O)CN(CCc1ccccc1)C(=O)CN(CCc1ccccc1)C(=O)CNCCCN [Compound 30]
35.7	348.5	0.404	CCCCCCCCCCN(CC(N)=O)C(=O)CN(CCCCCCCCCC)C(=O)CN(CCCCCCCCCC)C(=O)CN(CCCCCCCCCC)C(=O)CN(CCc1ccccc1)C(=O)CN(CCc1ccccc1)C(=O)CN(CC1CCNCC1)C(=O)CN(CCc1ccccc1)C(=O)CN(CCc1ccccc1)C(=O)CN(CC1CCNCC1)C(=O)CN(CCc1ccccc1)C(=O)CN(CCc1ccccc1)C(=O)CNCC1CCNCC1 [Compound 31]
50.9	247.5	0.274	CCCCCCCCCCN(CC(N)=O)C(=O)CN(CCCCCCCCCC)C(=O)CN(CCCCCCCCCC)C(=O)CN(CCCCCCCCCC)C(=O)CN(CCc1ccccc1)C(=O)CN(CCc1ccccc1)C(=O)CN(CC1CCNCC1)C(=O)CN(CCc1ccccc1)C(=O)CN(CCc1ccccc1)C(=O)CN(CC1CCNCC1)C(=O)CN(CCc1ccccc1)C(=O)CN(CCc1ccccc1)C(=O)CN(CC1CCNCC1)C(=O)CN(CCc1ccccc1)C(=O)CN(CCc1ccccc1)C(=O)CNCC1CCNCC1 [Compound 32]
82.0	435.7	0.048	CCCCCCCCCCN(CC(N)=O)C(=O)CN(CCCCCCCCCC)C(=O)CN(CCc1ccccc1)C(=O)CN(CCc1ccccc1)C(=O)CN(CC1CCNCC1)C(=O)CN(CCc1ccccc1)C(=O)CN(CCc1ccccc1)C(=O)CN(CC1CCNCC1)C(=O)CN(CCc1ccccc1)C(=O)CN(CCc1ccccc1)C(=O)CNCC1CCNCC1 [Compound 33]
71.5	374.4	0.127	CCCCCCCCCCN(CC(N)=O)C(=O)CN(CCCCCCCCCC)C(=O)CN(CCc1ccccc1)C(=O)CN(CCc1ccccc1)C(=O)CN(CC1CCCN1)C(=O)CN(CCc1ccccc1)C(=O)CN(CCc1ccccc1)C(=O)CN(CC1CCCN1)C(=O)CN(CCc1ccccc1)C(=O)CN(CCc1ccccc1)C(=O)CNCC1CCCN1 (stereo not drawn) [Compound 36]

Source: patent publication US11701434B2, “Tertiary amino lipidated cationic peptides for nucleic acid delivery” (Nutcracker Therapeutics, Inc., priority 2018, dated 2023)
